Experimental data reported in article PMC5065788 (Bioorganic & medicinal chemistry, 2016).
Read-outs that look alike come from different tables or passages of the source. Each block holds one compound with its values, some of them ahead of it.

Assays:
[1] = target: T1, recombinant human aromatase (CYP19) (Homo sapiens, UniProt P11511); test: Inhibition of recombinant human aromatase; format: biochemical; conditions: ratio of IC50 values vs 13 (24880 nM)
T1 sequence (P11511 1-503): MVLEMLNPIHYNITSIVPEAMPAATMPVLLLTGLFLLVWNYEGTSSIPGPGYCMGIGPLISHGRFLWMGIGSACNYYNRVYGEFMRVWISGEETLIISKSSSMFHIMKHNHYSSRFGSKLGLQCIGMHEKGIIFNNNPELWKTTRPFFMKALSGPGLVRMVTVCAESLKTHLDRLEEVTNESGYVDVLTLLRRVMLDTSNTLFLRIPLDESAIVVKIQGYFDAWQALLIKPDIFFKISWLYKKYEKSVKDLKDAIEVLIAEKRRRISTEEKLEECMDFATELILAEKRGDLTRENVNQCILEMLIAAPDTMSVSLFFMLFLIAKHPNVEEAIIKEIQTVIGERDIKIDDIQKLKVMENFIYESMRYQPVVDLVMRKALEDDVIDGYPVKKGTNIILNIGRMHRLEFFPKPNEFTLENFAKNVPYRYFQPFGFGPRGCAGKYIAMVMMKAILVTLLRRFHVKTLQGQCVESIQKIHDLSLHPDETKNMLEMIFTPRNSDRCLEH

recombinant human ER-α [2] = target: T2, recombinant human ER-α (Homo sapiens, UniProt P03372); conditions: at 100 μM; previously reported compounds included for comparison; cited from earlier work
T2 sequence (P03372 1-595): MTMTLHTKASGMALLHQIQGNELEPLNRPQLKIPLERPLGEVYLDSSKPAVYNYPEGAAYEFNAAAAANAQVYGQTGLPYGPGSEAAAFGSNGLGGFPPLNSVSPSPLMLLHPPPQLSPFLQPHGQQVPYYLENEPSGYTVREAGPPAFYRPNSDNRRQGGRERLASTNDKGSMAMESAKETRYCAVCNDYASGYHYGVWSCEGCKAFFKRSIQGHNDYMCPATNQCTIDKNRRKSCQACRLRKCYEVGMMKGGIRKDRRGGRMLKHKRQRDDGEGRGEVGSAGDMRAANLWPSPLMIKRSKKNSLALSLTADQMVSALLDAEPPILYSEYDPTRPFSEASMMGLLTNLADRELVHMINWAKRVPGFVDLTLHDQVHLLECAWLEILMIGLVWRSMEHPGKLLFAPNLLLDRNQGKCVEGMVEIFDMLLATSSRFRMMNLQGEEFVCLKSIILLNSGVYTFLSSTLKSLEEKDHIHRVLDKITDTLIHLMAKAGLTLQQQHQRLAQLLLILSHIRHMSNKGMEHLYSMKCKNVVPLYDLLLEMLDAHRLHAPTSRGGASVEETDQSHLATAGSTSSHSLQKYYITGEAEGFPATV

recombinant human ER-α [3] = target: T2, recombinant human ER-α; test: Binding affinity for recombinant human ER-α; conditions: at 100 μM (100000 nM)
recombinant human ER-β [4] = target: T3, recombinant human ER-β (Homo sapiens, UniProt Q92731); test: Binding affinity for recombinant human ER-β; conditions: at 100 μM (100000 nM)
T3 sequence (Q92731 whole entry): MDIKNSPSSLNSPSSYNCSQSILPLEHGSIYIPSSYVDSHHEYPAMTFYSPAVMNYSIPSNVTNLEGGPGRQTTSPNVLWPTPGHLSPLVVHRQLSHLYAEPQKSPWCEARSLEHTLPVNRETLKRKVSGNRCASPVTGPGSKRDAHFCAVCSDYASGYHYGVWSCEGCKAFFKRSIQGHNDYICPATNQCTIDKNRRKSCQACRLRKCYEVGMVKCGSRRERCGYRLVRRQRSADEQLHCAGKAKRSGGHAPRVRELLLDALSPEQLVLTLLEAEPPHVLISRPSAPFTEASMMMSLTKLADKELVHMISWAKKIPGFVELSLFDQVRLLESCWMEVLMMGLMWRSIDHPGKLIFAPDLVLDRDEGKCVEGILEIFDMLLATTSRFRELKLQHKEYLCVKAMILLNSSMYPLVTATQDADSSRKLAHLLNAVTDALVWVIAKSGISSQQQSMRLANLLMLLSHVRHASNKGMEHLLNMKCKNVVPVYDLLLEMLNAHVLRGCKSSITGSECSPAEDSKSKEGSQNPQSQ

[5] = system: progesterone receptor (PGR) mRNA expression in MCF-7 cells; test: Antagonism of β-estradiol-stimulated progesterone receptor; format: cell-based, human; conditions: 1 μM compound in the presence of 10 nM β-estradiol, 24 hours
recombinant human ER-β [6] = target: T3, recombinant human ER-β; conditions: at 100 μM; previously reported compounds included for comparison; cited from earlier work

SMILES: CC(=C(c1ccc(N)cc1)c1ccc(N)cc1)c1ccc([N+](=O)[O-])cc1 [Compound 12c, 4-(1-(4-Aminophenyl)-2-(4-nitrophenyl)prop-1-enyl)benzenamine]
times more potent than 13 against aromatase [1]: 113 times

SMILES: CCC(=C(c1ccc(N)cc1)c1ccc(N)cc1)c1ccc([N+](=O)[O-])cc1 [Compound 12d, 4-(1-(4-Aminophenyl)-2-(4-nitrophenyl)but-1-enyl)benzenamine]
times more potent than 13 against aromatase [1]: 400 times

SMILES: CCC(=C(c1ccc(O)cc1)c1ccc(O)cc1)c1ccccc1 [Compound 13, 4-(1-(4-Hydroxyphenyl)-2-phenylbut-1-enyl)phenol]
ER-α percent competition (recombinant human ER-α [2]): 80% competition at 100 μM

SMILES: CCC(=C(c1ccc(N)cc1)c1ccc(NCC(N)=O)cc1)c1ccc([N+](=O)[O-])cc1 [Compound 16d, (E,Z)-2-(4-(1-(4-Aminophenyl)-2-(4-nitrophenyl)but-1-enyl)phenylamino)acetamide]
PGR mRNA expression level relative to estradiol (100%) [5]: 19.6%

SMILES: CC/C(=C(/c1ccc(O)cc1)c1ccc(OCC(N)=O)cc1)c1ccccc1 [Compound 17, (E,Z)-2-(4-(1-(4-Hydroxyphenyl)-2-phenylbut-1-enyl)phenoxy)-acetamide]
ER-α percent competition (recombinant human ER-α [2]): 57% competition at 100 μM | ER-β percent competition (recombinant human ER-β [6]): 71% competition at 100 μM

Other lines, results leading:

ER-α percent competition (recombinant human ER-α [3]): 0% competition at 100 μM | ER-β percent competition (recombinant human ER-β [4]): 0% competition at 100 μM
SMILES: CC(=C(c1ccc(O)cc1)c1ccc(OCC(N)=O)cc1)c1ccc([N+](=O)[O-])cc1 [Compound 16a, (E,Z)-2-(4-(1-(4-Hydroxyphenyl)-2-(4-nitrophenyl)prop-1-enyl)phenoxy)-acetamide]

ER-α percent competition (recombinant human ER-α [3]): 0% competition at 100 μM | ER-β percent competition (recombinant human ER-β [4]): 0% competition at 100 μM
SMILES: CCC(=C(c1ccc(O)cc1)c1ccc(OCC(N)=O)cc1)c1ccc([N+](=O)[O-])cc1 [Compound 16b, (E,Z)-2-(4-(1-(4-Hydroxyphenyl)-2-(4-nitrophenyl)but-1-enyl)phenoxy)-acetamide]
